Laboratory results: patent US7425640B2, “Substituted 5-carboxyamide pyrazoles and [1,2,4]triazoles as antiviral agents” (priority 2004, dated 2008)

The molecules below were run against HCV RNA-dependent RNA polymerase NS5B (Δ21) (Hepatitis C virus genotype 1b, UniProt P26663) (assay: Assay for HCV RNA-dependent RNA polymerase activity (SPA, [3H]-GTP incorporation)). Settings: read-out: Δ21 Activity (IC50 μM); 50 nM NS5B (Δ21), class symbols.
Type: biochemical
Summary of the method: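 NS5B (Δ21), 50 nM, was incubated 3 h at room temperature with biotinylated oligoG12/polyC template, 5 μM GTP plus [3H]-GTP, in HEPES pH 7.3 with MgCl2 and NaCl. [3H]-GTP incorporation was read by streptavidin SPA. IC50 came from single experiments across 11 two-fold dilutions (0.05–50 μM).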

Sequence of HCV RNA-dependent RNA polymerase NS5B (Δ21) (P26663 2420-2989, stated change not applied): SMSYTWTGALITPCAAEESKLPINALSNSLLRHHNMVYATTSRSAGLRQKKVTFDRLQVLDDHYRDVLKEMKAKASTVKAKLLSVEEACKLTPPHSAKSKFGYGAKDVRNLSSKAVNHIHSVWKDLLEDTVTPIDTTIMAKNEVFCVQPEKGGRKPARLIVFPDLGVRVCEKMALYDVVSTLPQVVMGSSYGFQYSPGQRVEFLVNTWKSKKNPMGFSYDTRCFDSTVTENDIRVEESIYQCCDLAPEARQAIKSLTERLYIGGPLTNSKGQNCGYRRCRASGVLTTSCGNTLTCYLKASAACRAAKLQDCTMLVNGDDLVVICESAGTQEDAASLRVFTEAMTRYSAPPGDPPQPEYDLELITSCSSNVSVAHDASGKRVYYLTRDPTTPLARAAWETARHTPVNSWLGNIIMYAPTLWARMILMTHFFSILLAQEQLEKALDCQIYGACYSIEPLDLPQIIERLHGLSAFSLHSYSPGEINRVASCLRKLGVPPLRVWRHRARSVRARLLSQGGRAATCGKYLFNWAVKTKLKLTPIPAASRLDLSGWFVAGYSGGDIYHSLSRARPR

SMILES | IC50 [µM]
COC(=O)CCCCCNC(=O)c1cc(C(=O)N[C@H]2CCCC[C@@H]2OCc2ccccc2)n(CC(=O)N[C@H]2CCCC[C@@H]2OCc2ccccc2)n1 [Compound 149] | 0.1 to 1
O=C(Cn1nc(C(=O)N2CCOCC2)cc1C(=O)N[C@H]1CCCC[C@@H]1OCc1ccccc1)N[C@H]1CCCC[C@@H]1OCc1ccccc1 [Compound 150] | 0.1 to 1
O=C(Cn1nc(C(=O)NCCCCCC(=O)ON2C(=O)CCC2=O)cc1C(=O)N[C@H]1CCCC[C@@H]1OCc1ccccc1)N[C@H]1CCCC[C@@H]1OCc1ccccc1 [Compound 151] | 0.1 to 1
CCOC(=O)c1cc(C(=O)N[C@H]2CCCC[C@@H]2OCc2ccccc2)n(CS(=O)(=O)N[C@H]2CCCC[C@@H]2OCc2ccccc2)n1 [Compound 152] | 0.1 to 1
O=C(O)CNC(=O)c1cc(C(=O)N[C@H]2CCCC[C@@H]2OCc2ccccc2)n(CC(=O)N[C@H]2CCCC[C@@H]2OCc2ccccc2)n1 [Compound 153] | 0.1 to 1
N#Cc1ccc(NNC(=O)c2cc(C(=O)N[C@H]3CCCC[C@@H]3OCc3ccccc3)n(CC(=O)N[C@H]3CCCC[C@@H]3OCc3ccccc3)n2)cc1 [Compound 154] | 0.1 to 1
CS(=O)(=O)NC(=O)c1cc(C(=O)N[C@H]2CCCC[C@@H]2OCc2ccccc2)n(CC(=O)N[C@H]2CCCC[C@@H]2OCc2ccccc2)n1 [Compound 155] | 0.1 to 1
O=C(Cn1nc(C(=O)N2CCN(Cc3ccccc3)CC2)cc1C(=O)N[C@H]1CCCC[C@@H]1OCc1ccccc1)N[C@H]1CCCC[C@@H]1OCc1ccccc1 [Compound 156] | 0.1 to 1
NC(=O)c1cc(C(=O)N[C@H]2CCCC[C@@H]2OCc2ccccc2)n(CC(=O)N[C@H]2CCCC[C@@H]2OCc2ccccc2)n1 [Compound 157] | 0.1 to 1
CN(C(=O)Cn1nc(C(=O)O)cc1C(=O)N(C)[C@H]1CCCC[C@@H]1OCc1ccccc1)[C@H]1CCCC[C@@H]1OCc1ccccc1 [Compound 158] | 0.1 to 1
O=C(Cn1nc(C(=O)N(c2ccccc2)c2ccccc2)cc1C(=O)N[C@H]1CCCC[C@@H]1OCc1ccccc1)N[C@H]1CCCC[C@@H]1OCc1ccccc1 [Compound 159] | 0.1 to 1
O=C(Cn1nc(C(=O)O)cc1C(=O)N[C@H]1CCCC[C@@H]1OCc1ccccc1)Nc1ncccc1Oc1ccccc1 [Compound 160] | 0.1 to 1
O=C(Cn1nc(CO)cc1C(=O)N[C@H]1CCCC[C@@H]1OCc1ccccc1)N[C@H]1CCCC[C@@H]1OCc1ccccc1 [Compound 161] | 0.1 to 1
CON=Cc1cc(C(=O)N[C@H]2CCCC[C@@H]2OCc2ccccc2)n(CC(=O)N[C@H]2CCCC[C@@H]2OCc2ccccc2)n1 [Compound 162] | 0.1 to 1
CCCONC(=O)c1cc(C(=O)N[C@H]2CCCC[C@@H]2OCc2ccccc2)n(CC(=O)N[C@H]2CCCC[C@@H]2OCc2ccccc2)n1 [Compound 164] | 0.1 to 1
O=C(O)CCCCCNC(=O)CCCCCNC(=O)c1cc(C(=O)N[C@H]2CCCC[C@@H]2OCc2ccccc2)n(CC(=O)N[C@H]2CCCC[C@@H]2OCc2ccccc2)n1 [Compound 165] | 0.1 to 1
O=C(Cn1nc(C(=O)O)cc1C(=O)N[C@H]1CCCC[C@@H]1OCc1ccccc1)N[C@H]1CCCC[C@@H]1NCc1ccccc1 [Compound 166] | 0.1 to 1
CC(C)NC(=O)Nc1cc(C(=O)N[C@H]2CCCC[C@@H]2OCc2ccccc2)n(CC(=O)N[C@H]2CCCC[C@@H]2OCc2ccccc2)n1 [Compound 167] | 0.1 to 1

Same assay, conditions: Δ21 Activity (IC50 μM), 50 nM NS5B (Δ21), class symbols

SMILES | IC50 [µM]
CC(C)NC(=O)c1cc(C(=O)N[C@H]2CCCC[C@@H]2OCc2ccccc2)n(CC(=O)N[C@H]2CCCC[C@@H]2OCc2ccccc2)n1 [Compound 163] | > 1
O=C(Cn1nc(C(=O)NCCCN2CCCC2=O)cc1C(=O)N[C@H]1CCCC[C@@H]1OCc1ccccc1)N[C@H]1CCCC[C@@H]1OCc1ccccc1 [Compound 168] | > 1
O=C(Cn1nc(C(=O)O)cc1C(=O)N[C@H]1CCCC[C@@H]1OCc1ccccc1)NC1CCC[C@@H]1Sc1ccccc1 (stereo partly drawn) [Compound 169] | > 1
O=C(Cn1nc(-c2cccs2)cc1C(=O)N[C@H]1CCCC[C@@H]1OCc1ccccc1)N[C@H]1CCCC[C@@H]1OCc1ccccc1 [Compound 170] | > 1
C=CCOc1ccccc1NC(=O)Cn1nc(C(=O)O)cc1C(=O)N[C@H]1CCCC[C@@H]1OCc1ccccc1 [Compound 171] | > 1
CC(C)(C)OC(=O)Nc1cc(C(=O)N[C@H]2CCCC[C@@H]2OCc2ccccc2)n(CC(=O)N[C@H]2CCCC[C@@H]2OCc2ccccc2)n1 [Compound 172] | > 1
O=C(Cn1nc(C(=O)NC2CCCc3ccccc32)cc1C(=O)N[C@H]1CCCC[C@@H]1OCc1ccccc1)N[C@H]1CCCC[C@@H]1OCc1ccccc1 (stereo partly drawn) [Compound 173] | > 1
CCOC(=O)c1cc(C(=O)N[C@H]2CCCC[C@@H]2NCc2ccccc2)n(CC(=O)N[C@H]2CCCC[C@@H]2OCc2ccccc2)n1 [Compound 174] | > 1
Cc1cc(C(=O)N[C@H]2CCCC[C@@H]2OCc2ccccc2)n(CC(=O)N[C@H]2CCCC[C@@H]2OCc2ccccc2)n1 [Compound 175] | > 1
O=C(Cn1nc(C(=O)NCCc2ccccn2)cc1C(=O)N[C@H]1CCCC[C@@H]1OCc1ccccc1)N[C@H]1CCCC[C@@H]1OCc1ccccc1 [Compound 176] | > 1
CCOCCN(CCOCC)C(=O)c1cc(C(=O)N[C@H]2CCCC[C@@H]2OCc2ccccc2)n(CC(=O)N[C@H]2CCCC[C@@H]2OCc2ccccc2)n1 [Compound 177] | > 1
CCOC(=O)c1cc(C(=O)N[C@H]2CCCC[C@@H]2OCc2ccccc2)n(CC(=O)N(C)[C@H]2CCCC[C@@H]2OCc2ccccc2)n1 [Compound 178] | > 1
O=C(Cn1nc(C(=O)Nc2ccccc2-c2ccccc2)cc1C(=O)N[C@H]1CCCC[C@@H]1OCc1ccccc1)N[C@H]1CCCC[C@@H]1OCc1ccccc1 [Compound 179] | > 1
CC(O)(c1ccc(Cl)cc1)c1cc(C(=O)N[C@H]2CCCC[C@@H]2OCc2ccccc2)n(CC(=O)N[C@H]2CCCC[C@@H]2OCc2ccccc2)n1 (stereo partly drawn) [Compound 180] | > 1
CCOC(=O)c1cc(C(=O)N(C)[C@H]2CCCC[C@@H]2OCc2ccccc2)n(CC(=O)N[C@H]2CCCC[C@@H]2OCc2ccccc2)n1 [Compound 181] | > 1
O=C(Cn1nc(C(=O)Cc2ccccc2)cc1C(=O)N[C@H]1CCCC[C@@H]1OCc1ccccc1)N[C@H]1CCCC[C@@H]1OCc1ccccc1 [Compound 182] | > 1
CCOC(=O)CNC(=O)Nc1cc(C(=O)N[C@H]2CCCC[C@@H]2OCc2ccccc2)n(CC(=O)N[C@H]2CCCC[C@@H]2OCc2ccccc2)n1 [Compound 183] | > 1
COC(=O)CCCCCNC(=O)CCCCCNC(=O)c1cc(C(=O)N[C@H]2CCCC[C@@H]2OCc2ccccc2)n(CC(=O)N[C@H]2CCCC[C@@H]2OCc2ccccc2)n1 [Compound 184] | > 1

SMILES | IC50 [µM]
O=C(Cn1nc(C(=O)O)cc1C(=O)N[C@H]1CCCC[C@@H]1OCc1ccccc1)Nc1ccc2c(c1)OCO2 [Compound 185] | > 1
CCOC(=O)c1cc(C(=O)N[C@H]2CCCC[C@@H]2OCc2ccccc2)n(C(C)C(=O)N[C@H]2CCCC[C@@H]2OCc2ccccc2)n1 (stereo partly drawn) [Compound 186] | > 1
O=C(Cn1nc(C(=O)NCCCn2ccnc2)cc1C(=O)N[C@H]1CCCC[C@@H]1OCc1ccccc1)N[C@H]1CCCC[C@@H]1OCc1ccccc1 [Compound 188] | > 1
O=Cc1cc(C(=O)N[C@H]2CCCC[C@@H]2OCc2ccccc2)n(CC(=O)N[C@H]2CCCC[C@@H]2OCc2ccccc2)n1 [Compound 189] | > 1
CC(C)(O)c1cc(C(=O)N[C@H]2CCCC[C@@H]2OCc2ccccc2)n(CC(=O)N[C@H]2CCCC[C@@H]2OCc2ccccc2)n1 [Compound 190] | > 1
O=C(Cn1nc(C(=O)NCCO)cc1C(=O)N[C@H]1CCCC[C@@H]1OCc1ccccc1)N[C@H]1CCCC[C@@H]1OCc1ccccc1 [Compound 191] | > 1
O=C(Cn1nc(C(=O)NC2CCN(Cc3ccccc3)CC2)cc1C(=O)N[C@H]1CCCC[C@@H]1OCc1ccccc1)N[C@H]1CCCC[C@@H]1OCc1ccccc1 [Compound 192] | > 1
CCOC(=O)c1cc(C(=O)N[C@H]2CCCC[C@@H]2OCc2ccccc2)n(CC(=O)Nc2ccc3c(c2)OCO3)n1 [Compound 193] | > 1
CCCCC(CC)CNC(=O)c1cc(C(=O)N[C@H]2CCCC[C@@H]2OCc2ccccc2)n(CC(=O)N[C@H]2CCCC[C@@H]2OCc2ccccc2)n1 (stereo partly drawn) [Compound 194] | > 1
CCOC(CCCNC(=O)c1cc(C(=O)N[C@H]2CCCC[C@@H]2OCc2ccccc2)n(CC(=O)NC2CCCC[C@@H]2OCc2ccccc2)n1)OCC (stereo partly drawn) [Compound 195] | > 1
CC(=O)Nc1cc(C(=O)N[C@H]2CCCC[C@@H]2OCc2ccccc2)n(CC(=O)NC2CCCC[C@@H]2OCc2ccccc2)n1 (stereo partly drawn) [Compound 196] | > 1
CN(C)C(=O)c1cc(C(=O)N[C@H]2CCCC[C@@H]2OCc2ccccc2)n(CC(=O)NC2CCCC[C@@H]2OCc2ccccc2)n1 (stereo partly drawn) [Compound 197] | > 1
O=C(O)c1cc(C(=O)N[C@H]2CCCC[C@@H]2OCc2ccccc2)n(CC(=O)N2CCC[C@@H]2COCc2ccccc2)n1 [Compound 198] | > 1
CCOC(=O)c1cc(C(=O)N[C@H]2CCCC[C@@H]2OCc2ccccc2)n(CC(=O)NC2CCCC[C@@H]2NCc2ccccc2)n1 (stereo partly drawn) [Compound 199] | > 1
CCOC(=O)c1cc(C(=O)N[C@H]2CCCC[C@@H]2OCc2ccccc2)n(CC(=O)Nc2ncccc2Oc2ccccc2)n1 [Compound 200] | > 1
COc1ccc(NC(=O)c2cc(C(=O)O)nn2CC(=O)N[C@H]2CCCC[C@@H]2OCc2ccccc2)c(OCc2ccccc2)c1 [Compound 201] | > 1
CCOC(=O)c1cc(C(=O)Nc2cc(C)ccc2OCn2nc(C)cc2C)n(CC(=O)N[C@H]2CCCC[C@@H]2OCc2ccccc2)n1 [Compound 202] | > 1
O=C(Cn1nc(C(=O)Nc2ccc(-c3ccccc3)cc2)cc1C(=O)N[C@H]1CCCC[C@@H]1OCc1ccccc1)NC1CCCC[C@@H]1OCc1ccccc1 (stereo partly drawn) [Compound 203] | > 1
